Consider 9 compounds from patent publication US20230212174A1, “PYRROLO[2,1-F][1,2,4]TRIAZINE DERIVATIVE AND USE THEREOF” (Tencent Technology (Shenzhen) Company Limited, priority 2021, published 2023).

The target in the assay is T1, TTK (Homo sapiens, UniProt P33981).
T1 sequence (P33981 1-857): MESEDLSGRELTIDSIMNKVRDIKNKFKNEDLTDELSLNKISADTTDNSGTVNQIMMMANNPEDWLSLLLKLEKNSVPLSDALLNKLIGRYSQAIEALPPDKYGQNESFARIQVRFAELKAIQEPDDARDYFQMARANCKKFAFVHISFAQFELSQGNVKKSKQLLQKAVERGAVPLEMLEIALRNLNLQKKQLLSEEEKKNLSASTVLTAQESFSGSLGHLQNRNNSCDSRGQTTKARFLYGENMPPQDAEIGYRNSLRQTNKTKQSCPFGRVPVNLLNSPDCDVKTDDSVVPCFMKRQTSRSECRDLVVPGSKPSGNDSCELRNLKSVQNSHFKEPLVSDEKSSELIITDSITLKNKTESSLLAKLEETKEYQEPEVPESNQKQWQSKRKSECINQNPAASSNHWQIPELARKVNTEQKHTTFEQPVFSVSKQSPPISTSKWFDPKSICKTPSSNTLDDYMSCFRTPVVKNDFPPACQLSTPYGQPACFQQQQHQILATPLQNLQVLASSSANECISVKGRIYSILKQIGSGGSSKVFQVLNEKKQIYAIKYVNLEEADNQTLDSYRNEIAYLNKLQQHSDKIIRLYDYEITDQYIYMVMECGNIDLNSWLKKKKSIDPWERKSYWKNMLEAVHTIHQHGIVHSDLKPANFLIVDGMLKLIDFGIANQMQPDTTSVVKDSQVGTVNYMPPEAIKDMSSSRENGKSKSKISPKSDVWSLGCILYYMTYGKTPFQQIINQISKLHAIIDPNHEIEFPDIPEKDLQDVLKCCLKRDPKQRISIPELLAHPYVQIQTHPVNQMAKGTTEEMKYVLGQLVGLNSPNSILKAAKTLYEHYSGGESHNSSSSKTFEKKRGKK
Kind of assay: TTK inhibitory activity (kinase reaction, Fluorescein-PolyGT substrate, antibody/EDTA stop, Envision read). The format is biochemical. The note with it: 0.5 nM TTK, 7 uM ATP, 0.2 uM Fluorescein-PolyGT, 28° C., 30 min. The method, then:
The experiment aims to detect the inhibitory activity of the compound of the present disclosure on TTK in vitro.
The TTK kinase reaction system was 10 μL, including 0.5 nM TTK, test compound over a concentration gradient, 10 mM MgCl2, 2 mM DTT, 7 uM ATP, 0.2 uM Fluorescein-PolyGT (Fluorescein-Poly Glu:Tyr (4:1)), 0.01% Triton X-100, 0.01% BSA, and 50 mM HEPES pH 7.5. The enzyme and the test compound of the present disclosure were added into a 384-well plate, and then a substrate and ATP were added. Then the system was incubated at a constant temperature of 28° C. 30 min after the reaction, 10 μL of a mixed solution of a corresponding antibody and EDTA was added to terminate the reaction, and incubated for 60 min at a constant temperature of 28° C. The data was read on Envision instrument. A curve was plotted with the Log concentration of the inhibitor as the X axis and the inhibition rate as the Y axis, and IC50 was calculated by Y=Bottom+(Top-Bottom)/(1+(IC50/X)^HillSlope).
As to `CCOc1cc(-c2nncn2C)ccc1Nc1ncc2ccc(C3CCOCC3)n2n1` [Compound 17], half-maximal inhibition (IC50) was put at 6.3 nM.
The figure for `CCOc1cc(-c2nncn2C)ccc1Nc1ncc2ccc(-c3cnn(C)c3)n2n1` [Compound 18] is 2.1 nM.
The figure for `CCOc1cc(-c2nncn2C)ccc1Nc1nc(NC2CCOCC2)c2cccn2n1` [Compound 4] is 4 nM.
Next, `CCOc1cc(-c2nncn2C)ccc1Nc1nc(NC2CCCC2)c2cccn2n1` [Compound 3]: 8.9 nM.
As for `CCOc1cc(-c2nncn2C)ccc1Nc1ncc2ccc(C3CCCC3)n2n1` [Compound 13], the IC50 – broadly, the concentration that gives 50% inhibition – is 7.1 nM.
Compound `CCOc1cc(-c2nncn2C)ccc1Nc1ncc2ccc(C3=CCCC3)n2n1` [Compound 12] returned an IC50 of 8.7 nM.
As to `CCOc1cc(-c2nncn2C)ccc1Nc1nc(NCC(C)(C)C)c2cccn2n1` [Compound 1], half-maximal inhibition (IC50) was put at 27 nM.
The figure for `CCOc1cc(-c2nncn2C)ccc1Nc1ncc2ccc(C3CCCCC3)n2n1` [Compound 15] is 4.2 nM; for `CCOc1cc(-c2nncn2C)ccc1Nc1nc(NC2CCCCC2)c2c(Cl)ccn2n1` [Compound 10] it is 5.5 nM.
